According to patent US7264932B2, “Nuclease inhibitor cocktail” (Applera Corporation, priority 1999, dated 2007):
Where “and” joins values, the source holds several entries; their conditions need not be identical. Equal values may be shown once.

Key:
[1] = test system: RNase A, 1, and T1; assay: Anti-RNase antibodies / Specific Anti-RNase Cocktail with added non-antibody inhibitor; type: biochemical; details: for effect on action of Specific Anti-RNase Cocktail against RNase A, 1, and T1: detergent added to cocktail at 0.1% to 1%
Procedure: (§1) The activity of an anti-nuclease cocktail is readily determined using radiolabeled RNA or DNA to detect the inhibition of nuclease by anti-nuclease antibodies in the anti-nuclease cocktail. […] Assay buffer, nuclease and an anti-nuclease cocktail are then added to 0.5 ml microfuge tubes. A mixture comprising assay buffer, RNA or DNA and radiolabeled RNA or DNA is added to the microfuge tubes, and the tubes are vortexed and microfuged. After incubation of the tubes at 37° C. for 30 minutes, a portion of the tube contents is removed and placed into gel loading buffer. After mixing, the combination is loaded onto a gel, typically a 8M urea/5% acrylamide gel, which is exposed to film.
(§2) Radiolabeled RNA was used to detect the inhibition of RNase A, RNase T1, and RNase 1 by specific antibodies.
(§3) The “MIX” was prepared by combining 10× Assay Buffer (0.9 μl/rxn), 5 mg/ml yeast RNA (0.4 μl/rxn), ^32P-labeled β actin RNA (1 μl/rxn), and nuclease-free H2O (6.7 μl/rxn), for a total of 9 μl/rxn.
(§4) 1× Assay Buffer was added first. Then Specific RNase Cocktail, Specific Anti-RNase Cocktail and MIX were added. The tubes are vortexed and microfuged, then incubated at 37° C. for 30 min (Table 9).
(§5) At the end of the incubation time, 10 μl of solution was removed from the tube and placed into 10 μl Gel Loading Buffer II. The combination was mixed thoroughly and loaded onto a 8M urea/5% acrylamide gel. The gel was exposed to film for 30 min. at −80° C. with an intensifying screen.

[2] = biological target: nuclease (Homo sapiens, UniProt P03950); assay: Ki of Lead 1 and Lead 2 analogs (Tables 1 and 2); type: biochemical; details: Table 1, Lead 1 Analog List
[3] = biological target: DNase I (Bos taurus, UniProt P00639); assay: Lambda DNA digestion assay with DNase I; type: biochemical; details: 0.1 U DNase, inhibitor at 5×Ki
Source text: One application for small molecule RNase inhibitors is as an RNA control agent during enzymatic manipulation of solutions containing RNA. These reactions include in vitro transcription, in vitro translation, DNase digestion, and reverse transcription, among others. […] […] […] All reactions were quenched with EDTA and the cleavage products resolved on a 1% agarose gel.
As a result, compounds such as #467929, 140553, and 180582 may have utility in curbing the activity of residual RNases that may carry over from RNA isolation methods during DNase treatments of the RNA.

[4] = biological target: MMLV RT RNase H (Moloney murine leukemia virus, UniProt P03355); assay: RT-based RNase H cleavage of RNA:DNA hybrid; type: biochemical
Procedure: As described above, Chembridge compound #467929 offered protection from several RNA-specific endonucleolytic activities. […] A 20-mer DNA oligonucleotide was asymmetrically annealed to a 1500 base synthetic RNA to create an RNA:DNA duplex substrate for RNase H. Reactions were initiated with 10 U of MMLV RT in 1× RT buffer (50 mM TrisCl pH 8.3, 75 mM KC, 3 mM MgCl2, 5 mM DTT) containing 500 ng/ul RNA:DNA hybrid. All reactions contained 5% DMSO either with or without the small molecule RNase inhibitor. Samples were incubated for 5 min at 37 C, and quenched with EDTA. Products were resolved on an RNA LabChip. Cleavage products were observed as two equally represented RNA species of 1000 and 500 bases. Product length and yield were determined using the 2100 BioAnalyzer software (Agilent). Table 18 details the level of inhibition of MMLV RT RNase H that is observed as a function of the concentration of compounds 467929 and 227726.

[5] = test system: one-step RT-PCR with MMLV-RT and SuperTaq, human CDC-2 mRNA; assay: One-step qRT-PCR tolerance, human CDC-2; type: biochemical
Procedure: The compatibility of #467929 and 227726 were tested in Ambion's MessageSensor RT-PCR Kit according to the supplier's instructions and using primers/probe designed to amplify a ˜100 nt amplicon from the human CDC-2 mRNA. The reaction conditions were: 20-ul one-step RT-PCR with MMLV-RT (0.4 U/ul final) and SuperTaq (0.04 U/ul final). The cycling conditions were: Stage 1. 42 C for 15 minutes Stage 2. 95 C for 5 min, Stage 3. 95 C-15 sec and 60 C-60 sec where Stage 3 is repeated 40 times. The input template was HeLa-S3 total RNA at either 1 ng or 10 ng/reaction. […] Consequently, these compounds may have utility in controlling any RNA degradation that might occur during the cDNA synthesis step of RT-PCR.

[6] = test system: diluted pancreas lysate; assay: Intactness of total RNA (RNA LabChip), diluted pancreas lysate; type: biochemical, mouse
Procedure: A total of 100 pg/ul e. […].
Pancreatic lysate (0.1 mg/ml) was diluted 1:20,000 in 24 mM Hepes, pH 7.2, 50 mM NaCl, 1 mM MgCl2 and pre-incubated with either 1% SDS or 6.25 mM OVA for 30 s prior to the addition of 2 ug mouse liver total RNA. Reactions were incubated at 25 C for an additional 4 min, quenched, and analyzed on an RNA LabChip.
Mouse pancreatic tissue (5 mg) was disrupted in 50 ul of 24 mM Hepes, pH 7.2, 50 mM NaCl, 1 mM MgCl2. The diluted lysate (1:20,000) was pre-incubated with 50 uM Benzopurpurin B (BpB) for 30 sec and then added to 100 ng/ul mouse liver total RNA (Ambion) and incubated at 23 C for an additional 4 min. Samples were quenched in a guanidinium lysis buffer, and the RNA purified via MEGAclear™ MAG-96 and eluted with 20 ul nuclease-free water. […] These experiments were conducted in the same fashion except that 100 uM BpB was employed. The sample (1 ul) was analyzed by 2100 BioAnalyzer software (Agilent) after separation on an RNA LabChip.
Mouse pancreatic tissue (5 mg) was dounced in 50 ul of 24 mM Hepes, pH 7.2, 50 mM NaCl, 1 mM MgCl2. A diluted lysate (1:20,000) was pre-incubated with 100 uM BpB or the analog Benzopurpurin 4B (Bp4B) for 30 sec and then added to 100 ng/ul mouse liver total RNA (Ambion) and incubated at 23 C for an additional 4 min. Samples were quenched in a guanidinium lysis buffer, and the RNA purified via MEGAclear™ MAG-96 and eluted with 20 ul nuclease-free water. The sample (1 ul) was analyzed by 2100 BioAnalyzer software (Agilent) after separation on an RNA LabChip.
Pancreatic tissue (5 mg) was dounced in 50 ul of 24 mM Hepes, pH 7.2, 50 mM NaCl, 1 mM MgCl2. The lysate was diluted (1:20,000) and then pre-incubated with 200 uM of 467929. […] All samples were pre-incubated for 30 sec before being added to 100 ng/ul mouse liver total RNA (Ambion) and incubated at 23C for an additional 4 min. The RNA was then immediately purified via MEGAclear™ MAG-96 and eluted with 20 ul nuclease-free water. The recovered RNA (1 ul) was analyzed by 2100 BioAnalyzer software after separation on an RNA LabChip.

[7] = biological target: T1, RNase A (Bos taurus, UniProt P61823); assay: Radiolabeled RNA probe degradation gel assay, RNase A; type: biochemical
T1 sequence (P61823 27-150): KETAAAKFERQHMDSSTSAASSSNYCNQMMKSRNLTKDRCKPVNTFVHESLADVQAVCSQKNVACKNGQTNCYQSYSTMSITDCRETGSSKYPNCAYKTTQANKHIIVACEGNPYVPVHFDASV
Procedure: as §1, §2, §3, §4, §5

nuclease, sequence (P03950 25-147): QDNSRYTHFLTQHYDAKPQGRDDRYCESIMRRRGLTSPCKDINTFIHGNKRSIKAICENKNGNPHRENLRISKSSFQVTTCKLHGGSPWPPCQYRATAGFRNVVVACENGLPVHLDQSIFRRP
DNase I, sequence (P00639 23-282): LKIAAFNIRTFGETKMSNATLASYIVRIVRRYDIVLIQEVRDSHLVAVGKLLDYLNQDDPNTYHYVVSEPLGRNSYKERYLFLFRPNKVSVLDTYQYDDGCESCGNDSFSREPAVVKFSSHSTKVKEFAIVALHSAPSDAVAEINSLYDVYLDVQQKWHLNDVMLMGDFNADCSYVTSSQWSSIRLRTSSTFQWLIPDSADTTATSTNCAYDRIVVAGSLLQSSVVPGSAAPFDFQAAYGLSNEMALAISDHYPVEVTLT

Triton X-100
effect on action of Specific Anti-RNase Cocktail against RNase A, 1, and T1 [1]: strengthened the action of Specific Anti-Rnase Cocktail against RNase A, 1, and T1.

CC(=O)Nc1ccc(N=Nc2c(S(=O)(=O)O)cc3cc(S(=O)(=O)O)cc(NC(C)=O)c3c2O)cc1 [acid violet7, acid violet 7]
Ki [2]: 71 µM

O=C(O)C1=NN(c2ccccc2)C(=O)\C1=C/C=C/C=C/C1C(=O)N(c2ccccc2)N=C1C(=O)O (stereo not drawn) [compound 102704, 4-[5-(3-carboxy-5-oxo-1-phe-nyl-1,5-dihydro-4H-pyra-zol-4-ylidene)-1,3-penta-dien-1-yl]-5-hy-droxy-1-phenyl-1H-pyra-zole-3-carboxylic acid]
DNase inhibition [3]: modestly inhibitory

O=S(=O)(O)c1cc(O)c2c(/N=C/c3ccccc3O)cc(S(=O)(=O)O)cc2c1 [compound 88947]
KI [2]: in-activeat 75uM

C[C@H](CCC(=O)NCCC[N+](C)(C)CCCS(=O)(=O)[O-])[C@H]1CC[C@H]2[C@@H]3[C@H](O)C[C@@H]4C[C@H](O)CC[C@]4(C)[C@H]3C[C@H](O)[C@]12C [CHAPS]
effect on action of Specific Anti-RNase Cocktail against RNase A, 1, and T1 [1]: strengthened the action of Specific Anti-Rnase Cocktail against RNase A, 1, and T1.

O=C(N/N=C(\c1ccccc1)c1ccncc1)c1ccccc1 [compound 227726, N′-[phenyl(4-pyri-dinyl)meth-ylene]benzohydrazide]
DNase inhibition [3]: modestly inhibitory
% Cleavage ([4]; inhibitor 100 uM): 45%
% Cleavage ([4]; inhibitor 524 uM): 43%
% Cleavage ([4]; inhibitor 1000 uM): 47%
concentration tolerated in RT-PCR [5]: at least 1.3 mM
Cycle Threshold ([5]; Input RNA = 1 ng, inhibitor 130 uM): 26.01 and 26.08
Cycle Threshold ([5]; Input RNA = 1 ng, inhibitor 655 uM): 26.14 and 26.18
Cycle Threshold ([5]; Input RNA = 1 ng, inhibitor 1.3 mM): 26.08 and 26.18
Cycle Threshold ([5]; Input RNA = 10 ng, inhibitor 130 uM): 23.18 and 23.24
Cycle Threshold ([5]; Input RNA = 10 ng, inhibitor 655 uM): 23.01
Cycle Threshold ([5]; Input RNA = 10 ng, inhibitor 1.3 mM): 23.02 and 23.04

cefsulodin [reference compound]
Ki [2]: 201 µM

Cc1ccc(S(=O)(=O)Nc2ccc(Cc3ccc(NS(=O)(=O)c4ccc(C)cc4)c(C(=O)O)c3)cc2C(=O)O)cc1 [compound 180582, 3,3′-methylenebis(6-[4-meth-ylphenylsulfonyl]a-mino)benzoic acid]
DNase inhibition [3]: little or no DNase inhibition

O=C(Nc1ccc(/N=N/c2ccc3cc(S(=O)(=O)O)cc(S(=O)(=O)O)c3c2)cc1)c1ccc(/N=N/c2c(O)ccc3cc(S(=O)(=O)O)cc(S(=O)(=O)O)c23)cc1 [compound 65841]
Ki [2]: 5 µM

Cc1cc(/N=N/c2ccc(S(=O)(=O)O)c3ccccc23)ccc1O [compound 45557]
Ki [2]: > 500 µM

Nc1c(OCC(=O)O)ccc2cc(S(=O)(=O)O)ccc12 [compound 16163]
KI [2]: in-activeat 75uM

Cc1ccccc1/N=N/c1ccc(/N=N/c2c(O)ccc3cc(S(=O)(=O)O)cc(S(=O)(=O)O)c23)c(C)c1 [compound 45601]
Ki [2]: 122 µM

O=C(O)CC(O)(CC(=O)O)C(=O)O [citrate, reference compound]
protection of total RNA from degradation ([6]; 50 mm citrate, pancreas lysate 1:20,000, e. coli total rna, room temperature 4 min): significant protection

NCCCCNCCCN [spermidine]
effect on anti-RNase A, 1, and T1 activity of Specific Anti-RNase Cocktail ([1]; 5 mM spermidine mixed with cocktail): 5 Mm spermidine mixed with Specific Anti-RNase Cocktail enhanced anti-RNase

eriochrome black T [erio-chromeblack T]
Ki [2]: 50 µM

NC(N)=O [urea]
concentration that inhibited RNase A activity [7]: 6 M urea inhibited RNase A activity. This concentration of urea added to the Specific
effect on action of Specific Anti-RNase Cocktail ([1]; 6 M urea added to cocktail): Anti-Rnase Cocktail strengthened the action of Specific Anti-RNase Cocktail.

NP-40
effect on action of Specific Anti-RNase Cocktail against RNase A, 1, and T1 [1]: strengthened the action of Specific Anti-Rnase Cocktail against RNase A, 1, and T1.

[Cl-].[Cl-].[Mg+2] [MgCl2]
effect of mixing with Specific Anti-RNase Cocktail ([1]; MgCl2 mixed together with cocktail): best

N#CS.N=C(N)N [guanidine thiocyanate]
effect on Specific Anti-RNase Cocktail [1]: more inhibitory against different antibodies.

Nc1cccc(C(=O)Nc2ccc3c(O)cc(S(=O)(=O)O)cc3c2)c1 [compound 1743]
KI [2]: in-activeat 75uM

oligovinylsulfonic acid [OVA, reference compound]
protection of RNA from degradation ([6]; 6.25 mM OVA, pancreatic lysate 1:20,000, mouse liver total RNA, 25 C 4 min): help remedy RNA degradation

O=C(Nc1cc(S(=O)(=O)O)cc2cc(S(=O)(=O)O)cc(O)c12)c1ccccc1 [compound 16169]
KI [2]: in-activeat 75uM

Cc1ccc(C)n1-c1cccc(C(=O)O)c1 [compound 128773, 3-(2,5-dimethyl-1H-pyr-rol-1-yl)benzoic acid]
DNase inhibition [3]: modestly inhibitory

O=S(=O)(O)c1ccc(-c2ccc(/N=N/c3c(O)ccc4cc(S(=O)(=O)O)ccc34)cc2)cc1 [D726712]
Ki [2]: ~350 µM

O=C(COc1ccc(I)cc1)c1c(O)cc(O)cc1O [compound 140553, 2-(4-iodo-phenoxy)-1-(2,4,6-tri-hydroxyphenyl)etha-none]
DNase inhibition [3]: little or no DNase inhibition
